Reference: patent US8524705B2, “2-oxo-2-(2-phenyl-5,6,7,8-tetrahydro-indolizin-3-yl)-acetamide derivatives and related compounds as antifungal agents” (F2G Limited British Body Corporate, priority 2007, dated 2013)
Converted amounts (≈) assume the structure as drawn.

How the values were obtained:
Type in all cases: cell-based
Settings in all cases: banded into grades
Aspergillus flavus = experiment: Measurement of Minimum Inhibitory Concentrations (MICs), A. flavus
Method: (§1) Between 1 and 5 mgs of compound were accurately weighed out into a sterile Eppendorf tube. The compound was dissolved in DMSO to give a solution containing 5 mg/mL. Tubes were stored at −20° C. until required. On the day of testing thawed solutions were vortex mixed to ensure homogeneity. 30 μL of solution was removed and added to 570 μL of sterile water in a separate sterile Eppendorf. The thoroughly mixed solution was used to prepare a series of doubling dilutions in water, in a deep well plate. […] replicate plates were prepared using a Minitrak by aspirating […] from each well into eleven clear polystyrene 96 well plates. Spores of Aspergillus spp. (Aspergillus fumigatus [two strains], Aspergillus terreus [two strains], Aspergillus niger and Aspergillus flavus) were harvested from cultures grown on Sabarauds agar for 5 days, and resuspended in PBS/Tween 80 to approx 1×10^7 cfu/mL. Each organism suspension was diluted in YAG medium (1% glucose, 1% ammonium chloride and 0.5% yeast extract) to 0.5-2×10^4 cfu/mL. 80 μL of an organism suspension was added to each well of the plate containing drug dilutions. This produced MIC plates with a drug range 50-0.05 mg/L and organism inocula of 1−2×10^4 cfu/mL for Aspergillus spp. All plates were incubated for 24 hrs at 35° C. Growth was assessed by monitoring the optical density at 485 nm for each well. The MIC of a compound is the lowest drug concentration that inhibits growth of an organism by >70% compared with a drug free control. MICs are recorded as mg/L. In cases where the MIC of an organism is >=0.05 mg/L the MIC is repeated using a concentration range of 0.5-0.0005 mg/L. Other growth media can be used for susceptibility testing, and the activity of the described compounds was also assessed in RPMI medium containing 2% glucose, and 0.135M MOPS buffer. MIC tests in YAG medium have more clear-cut endpoints and have slightly lower MICs than those performed in RPMI medium. The following organisms were tested: Aspergillus flavus, Aspergillus fumigatus AF293 and AF210, Aspergillus niger and Aspergillus terreus AT4 and AT49.

[1] = system: Aspergillus fumigatus AF293; experiment: Measurement of Minimum Inhibitory Concentrations (MICs), A. fumigatus
Method: as §1

[2] = system: Aspergillus fumigatus AF210; experiment: Measurement of Minimum Inhibitory Concentrations (MICs), A. fumigatus 210
Method: as §1

Aspergillus niger = experiment: Measurement of Minimum Inhibitory Concentrations (MICs), A. niger
Method: as §1

Aspergillus terreus AT4 = experiment: Measurement of Minimum Inhibitory Concentrations (MICs), A. terreus
Method: as §1

Aspergillus terreus AT49 = experiment: Measurement of Minimum Inhibitory Concentrations (MICs), A. terreus 49
Method: as §1

[3] = RPMI medium containing 2% glucose, 0.135M MOPS buffer
[4] = YAG medium, 24 hrs at 35° C., >70% growth inhibition

MIC (Aspergillus flavus; [3]) [µg/mL]	MIC (Aspergillus flavus; [4]) [µg/mL]	MIC [1, 3] [µg/mL]	MIC [1, 4] [µg/mL]	MIC [2, 3] [µg/mL]	MIC [2, 4] [µg/mL]	MIC (Aspergillus niger; [3]) [µg/mL]	MIC (Aspergillus niger; [4]) [µg/mL]	MIC (Aspergillus terreus AT4; [3]) [µg/mL]	MIC (Aspergillus terreus AT4; [4]) [µg/mL]	MIC (Aspergillus terreus AT49; [3]) [µg/mL]	MIC (Aspergillus terreus AT49; [4]) [µg/mL]	SMILES
< 1	< 1	> 10	< 1	> 10	< 1	< 1	< 1	< 1	< 1	< 1	< 1	O=C(Nc1cccc2ccccc12)C(=O)c1c(-c2ccccc2)cc2n1CCCC2 [Example 28, N-Naphthalen-1-yl-2-oxo-2-(2-phenyl-5,6,7,8-tetrahydro-indolizin-3-yl)-acetamide]
> 10	> 10	> 10	> 10	> 10	1 to 10 (≈ 1.58 to 15.8 µM)	1 to 10 (≈ 1.58 to 15.8 µM)	> 10	> 10	1 to 10 (≈ 1.58 to 15.8 µM)	1 to 10 (≈ 1.58 to 15.8 µM)	1 to 10 (≈ 1.58 to 15.8 µM)	Cc1cc(C)nc(N2CCN(c3ccc(NC(=O)C(=O)c4c(-c5ccccc5)cc5n4CCCC5)cc3COCCN(C)C)CC2)c1 [Example 29, N-{3-(2-Dimethylamino-ethoxymethyl)-4-[4-(4,6-dimethyl-pyridin-2-yl)-piperazin-1-yl]-phenyl}-2-oxo-2-(2-phenyl-5,6,7,8-tetrahydro-indolizin-3-yl)-acetamide]
< 1	< 1	< 1	< 1	< 1	< 1	< 1	< 1	< 1	< 1	< 1	< 1	Cc1cc(C)nc(N2CCN(c3ccc(NC(=O)C(=O)c4c(-c5ccccc5)cc5n4CCCC5)c(Cl)c3)CC2)c1 [Example 30, N-{2-Chloro-4-[4-(4,6-dimethyl-pyridin-2-yl)-piperazin-1-yl]-phenyl}-2-oxo-2-(2-phenyl-5,6,7,8-tetrahydro-indolizin-3-yl)-acetamide]
< 1	< 1	< 1	< 1	< 1	< 1	< 1	< 1	< 1	< 1	< 1	< 1	Cc1cc(C)nc(N2CCN(c3ccc(NC(=O)C(=O)c4c(-c5ccccc5)cc5n4CCCC5)cc3O)CC2)c1 [Example 31, N-{4-[4-(4,6-Dimethyl-pyridin-2-yl)-piperazin-1-yl]-3-hydroxy-phenyl}-2-oxo-2-(2-phenyl-5,6,7,8-tetrahydro-indolizin-3-yl)-acetamide]
1 to 10 (≈ 2.59 to 25.9 µM)	< 1	1 to 10 (≈ 2.59 to 25.9 µM)	< 1	1 to 10 (≈ 2.59 to 25.9 µM)	< 1	< 1	< 1	< 1	< 1	< 1	< 1	O=C(Nc1ccc2c(c1)OCC2)C(=O)c1c(-c2ccccc2)cc2n1CCCC2 [Example 32, N-(2,3-Dihydro-benzofuran-6-yl)-2-oxo-2-(2-phenyl-5,6,7,8-tetrahydro-indolizin-3-yl)-acetamide]
